The text below walks through data of US20240043859A1, “HERBICIDE-RESISTANT PROTEIN, AND GENE AND USE THEREOF” (QINGDAO KINGAGROOT CHEMICAL COMPOUND CO., LTD., priority 2020, published 2024).

The target of one assay is T1, AAD-12 (Delftia acidovorans, UniProt P83309).
T1 construct: made in house; host or cells: E. coli BL21(DE3)
In words: Degradation activities of AAD-12 on phenoxy acetic acid herbicides by spectrophotometry (A510). The assay is classed as biochemical, Comamonas acidovorans. Conditions: for A510 of reaction group, Reaction 1 / A510 of reaction group, Reaction 2 / A510 of reaction group, Reaction 3: AAD-12 enzyme with substrate, chromogenic detection at 510 nm; for Increased A510: reaction group versus blank group. As to the method:
As reported in literature (Fukomori and Flausinger, Purification and characterization of 2,4-dichlorophenoxyacetate/alpha-ketoglutarate dioxygenase Journal of Biological Chemistry (1993) 268(32): 24311-24317), the constructed expression vector pET15b-AAD12 was transformed into E. coli BL21(DE3) and induced by IPTG for expression. After cells were collected and lysed, Ni-NTA column was used for purification and the purity of the protein was analyzed by SDS-PAGE.
Since phenolic products were produced by AAD-12-substrate catalytic reaction, 4-aminoantipyrine and potassium ferricyanide could be used to develop color with the products in an alkaline environment to generate red products with absorption at 510 nm, and the relevant parameters were directly read with a microplate reader.

Assay [1] concerns Arabidopsis thaliana. As to the kind of experiment: Herbicide resistance of transgenic Arabidopsis thaliana seedlings on plate medium (root growth). It is filed as in vivo. To be noted: plate medium: 2,4-D 0.3 μmol; 2,4-DB sodium 0.7 μmol; MCPA 0.1 μmol. The procedure:
Expression in Arabidopsis thaliana was regulated by its AtUbi10 Arabidopsis thaliana ubiquitin promoter and the MAS (mannopine synthase) terminator. Hygromycin resistance gene (HygR=hpt) served as the selection marker.
Preparation of Agrobacterium infection solution: An activated Agrobacterium (GV3101) monoclone was picked and inoculated in 30 ml YEP liquid medium [yeast powder 10 g/L, tryptone 10 g/L, NaCl 5 g/L, 25 mg/L Rifampicin and 50 mg/L Kanamycin], shaking-cultured at 200 rmp/min, 28° C. overnight until the OD600 was about 1.0-1.5, then centrifuged at 6000 rmp/min for 10 min to collect the bacteria, and the supernatant was discarded. Arabidopsis thaliana infection solution (sucrose 50 g/L, Silwet L-77 300 μL/L, no need to adjust pH) was used to resuspend the cells to OD600=0.8 for later use.
Genetic transformation of Arabidopsis thaliana by flower dipping: Before transformation of Arabidopsis thaliana plants, attentions were paid to whether the plants were growing well, the inflorescences were abundant, and no stress response occurred. The first transformation was performed when plants were about 20 cm high. Plants could be properly watered if the soil was dry. The grown siliques were cut off with scissors the day before transformation. The inflorescences of the plants to be transformed were soaked in the above-mentioned Agrobacterium solution for 30 seconds to 1 minute, which was stirred gently during the period. And a layer of liquid film should appear on the infiltrated plant. The transformed plants were cultured in a dark environment for 24 hours, and then taken out and grown in a normal light environment. A second transformation could be performed in the same way a week later. […]

The subject of assay [2] is Arabidopsis thaliana. In words: Spray testing of T2 generation transgenic Arabidopsis thaliana. To be noted: 100 g/ha foliage spray, 10 days after spraying. It is filed as in vivo. An excerpt: The T2 generation seedlings of four representative transformants, pQY2309, pQY2310, pQY2311 and pQY2313, were selected for further spray testing. Four lines were randomly selected from the T2 generation generated by transformation of each vector, and respectively foliage-sprayed with 2,4-D (100 g/ha), MCPA (100 g/ha) and 2,4-DB sodium (100 g/ha) when Arabidopsis thaliana seeds germinated, transplanted and the seedlings grew to 5-7 leaf. Non-transgenic wild-type Col-0 served as a negative control. The level of resistance was assessed 10 days after spraying.

Structures are written as SMILES. “Also recorded” adds a separate entry of the source.

T1 sequence (P83309 2-292, added parts left off): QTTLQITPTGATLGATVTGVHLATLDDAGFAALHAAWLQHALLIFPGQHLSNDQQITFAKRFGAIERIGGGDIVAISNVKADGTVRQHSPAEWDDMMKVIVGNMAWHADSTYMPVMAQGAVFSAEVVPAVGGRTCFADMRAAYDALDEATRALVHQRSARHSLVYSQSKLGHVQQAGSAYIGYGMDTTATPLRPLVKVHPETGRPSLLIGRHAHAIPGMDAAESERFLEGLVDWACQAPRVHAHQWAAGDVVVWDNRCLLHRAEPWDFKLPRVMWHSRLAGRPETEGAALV

On to `CC(C)CCCCCOC(=O)COc1ccc(Cl)cc1Cl` [2,4-D isooctyl ester], for which, at AAD-12, the “Degradation activity of expressed AAD-12 enzyme on the substrate” value (from here on “Degradation activity”) was “degradation activities”; the “A510 of reaction group, Reaction 1” value is 0.1570; the “A510 of reaction group, Reaction 2” value was 0.1578; the “A510 of reaction group, Reaction 3” value is listed as 0.1497. In addition, the “Increased A510” value on AAD-12 is listed as “+0.019”.
In the case of `O=C([O-])CCCOc1ccc(Cl)cc1Cl.[Na+]` [2,4-DB sodium, reference compound], the “Effect of the herbicide on seminal roots of wild-type Col-0” value in the assay with Arabidopsis thaliana [1] is listed as “seminal roots are inhibited; also recorded: seminal roots are not able to grow”. Also, the “Effect of the herbicide spray on wild-type Col-0” value in the assay on Arabidopsis thaliana [2] was “all or almost all non-transgenic wild-type Arabidopsis thaliana died; also recorded: severely injured”.
With `O=C(O)CCCOc1ccc(Cl)cc1Cl` [2,4-DB, 4-(2,4-dichlorophenoxy)butanoic acid], on AAD-12, the “Degradation activity” value is “degradation activities”; the “A510 of reaction group, Reaction 1” value was determined as 0.1373; the “A510 of reaction group, Reaction 2” value was 0.1326; the “A510 of reaction group, Reaction 3” value was found to be 0.1345. Further, at AAD-12, the “Increased A510” value is “+0.017”.
On to `Cc1cc(Cl)ccc1OCC(=O)O` [MCPA, (4-chloro-2-methylphenoxy)acetic acid], for which the “Effect of the herbicide on seminal roots of wild-type Col-0” value in the assay with Arabidopsis thaliana [1] was “seminal roots are inhibited; also recorded: seminal roots are not able to grow”. On AAD-12, the “Degradation activity” value is “degradation activities”; the “A510 of reaction group, Reaction 1” value was 0.1998; the “A510 of reaction group, Reaction 2” value stood at 0.2076; the “Increased A510” value is recorded as “+0.035”. For the same compound, in the assay on Arabidopsis thaliana [2], the “Effect of the herbicide spray on wild-type Col-0” value is on record as “all or almost all non-transgenic wild-type Arabidopsis thaliana died; also recorded: all die”.
